Laboratory results taken from patent publication US20100021918A1, “METHOD FOR ASSAYING ACTION OF ANTITUMOR AGENT USING SPLICING DEFECTS AS INDEX” (Eisai R&D Management Co., Ltd., priority 2007, published 2010).

Test system: peripheral blood mononuclear cells (PBMC)
Assay: Microarray analysis (3), dose-dependent intron expression in PBMC at 3, 10, 30 nM, Table 5
Assay type: cell-based, human
Experimental: PBMC was suspended in RPMI1640 medium (containing 10% FBS, penicillin, and streptomycin) to 5×10^6 cells/ml and 1 ml of the suspension was plated per well of a 24-well plate. Immediately, 111 μl of 10 times-concentrated (8E,12E,14E)-7-((4-cycloheptylpiperazin-1-yl)carbonyl)oxy-3,6,16,21-tetrahydroxy-6,10,12,16,20-pentamethyl-18,19-epoxytricosa-8,12,14-trien-11-olide was added to the well (six wells per each concentration tested). The cells were then cultured in an incubator with 5% carbon dioxide gas at 37° C. Three hours later, the supernatant was collected and centrifuged at 1500 rpm for five minutes. TRI reagent (SIGMA) (1 ml) was added to each well of the plate from which the supernatant was removed to harvest the cells, which was added to the centrifuged pellet to dissolve. RNA was purified in accordance with the protocol of TRI reagent. RNA was further purified using RNeasy (QIAGEN) and, in accordance with the protocol, DNaseI was added to the samples during the procedure. Absorbance at 260 nm was measured to quantify an amount of RNA.
Ribosomal RNA was removed from 1 μg of each total RNA of control cells (n=3) and cells with the treatment (n=3) using RiboMinus Human/Mouse Transcriptome Isolation Kit (Invitrogen). Single stranded cDNA synthesis, double stranded cDNA synthesis, cRNA synthesis, second single stranded cDNA synthesis, cDNA fragmentation, and cDNA labeling in order were carried out for total RNA from which ribosomal RNA was removed, using GeneChip Whole Transcript Sense Target Labeling and Control Reagents (Affymetrix) to make a cDNA probe. Subsequently, the cDNA probe was used for hybridization with Human Exon 1.0 ST Array (Affymetrix). The array was washed and stained, and luminescence intensity was measured by a scanner.
The expression level of the probe set and the gene was quantified by using Expression Console Ver. 1.0 (Affymetrix) with Summarization Method and Normalization Method being set to “Median polish as used in RMA” and “None”, respectively. The expression level of the probe was normalized with that of the gene.
Probe sets showing that the normalized change in the level expression of the probe set in the group with the treatment at 30 nM was more than 5 times; the expression level of the probe set and the gene in the group with the treatment at 30 nM was more than 100; and probe set annotation was “extended, full, free”, were picked out. Regression analysis was performed with the probe sets extracted for the control group, the group with the treatment at 3 nM, the group with the treatment at 10 nM, and the group with the treatment at 30 nM to determine a p and q value for the slope of regression formula. A gene containing the probe sets with the q value of less than 5% was determined as a candidate gene with increased expression level of the intron regions (Table 5).
In Table 5, for the gene evaluated, gene name (Gene Name), abbreviated name (Gene Symbol), accession number (Accession), alias name (Synonym), transcription cluster number in Human Exon 1.0 ST Array (Human Exon 1.0 ST Array Transcription Cluster ID), chromosome number (Chromosome), type of strand (Strand), start region (Start), stop region (Stop), and change in expression level per 1 nM (Fold Change/nM) were respectively shown.

Compound: CCC(O)C(C)C1OC1CC(C)(O)/C=C/C=C(\C)C1OC(=O)CC(O)CCC(C)(O)C(OC(=O)N2CCN(C3CCCCCC3)CC2)/C=C/C1C (stereo not shown) [E7107, (8E,12E,14E)-7-((4-cycloheptylpiperazin-1-yl)carbonyl)oxy-3,6,16,21-tetrahydroxy-6,10,12,16,20-pentamethyl-18,19-epoxytricosa-8,12,14-trien-11-olide]
- Fold Change/nM (gene ABCC1, intron expression, 3, 10, 30 nM): 1.05 nM⁻¹
- Fold Change/nM (gene ADAR introns, regression over control, 3, 10, 30 nM): 1.05 nM⁻¹
- Fold Change/nM (gene AMPD3 // PPARA // TRMU // GTSE1, intron expression, 3, 10, 30 nM): 1.05 nM⁻¹
- Fold Change/nM (gene ANKH introns, regression over control, 3, 10, 30 nM): 1.05 nM⁻¹
- Fold Change/nM (gene ARF1 introns, regression over control, 3, 10, 30 nM): 1.05 nM⁻¹
- Fold Change/nM (gene ARHGDIB introns, regression over control, 3, 10, 30 nM): 1.05 nM⁻¹
- Fold Change/nM (gene ATP8A1 // PCLKC, intron expression, 3, 10, 30 nM): 1.05 nM⁻¹
- Fold Change/nM (gene AUTS2, intron expression, 3, 10, 30 nM): 1.05 nM⁻¹
- Fold Change/nM (gene BAT2D1, intron expression, 3, 10, 30 nM): 1.05 nM⁻¹
- Fold Change/nM (gene BCL9L, intron expression, 3, 10, 30 nM): 1.05 nM⁻¹
- Fold Change/nM (gene C3orf63, intron expression, 3, 10, 30 nM): 1.05 nM⁻¹
- Fold Change/nM (gene C13orf18, intron expression, 3, 10, 30 nM): 1.05 nM⁻¹
- Fold Change/nM (gene C22orf28, intron expression, 3, 10, 30 nM): 1.05 nM⁻¹
- Fold Change/nM (gene CALR, intron expression, 3, 10, 30 nM): 1.05 nM⁻¹
- Fold Change/nM (gene CAND1 introns, regression over control, 3, 10, 30 nM): 1.05 nM⁻¹
- Fold Change/nM (gene CCND2 introns, regression over control, 3, 10, 30 nM): 1.05 nM⁻¹
- Fold Change/nM (gene CDC2L5, intron expression, 3, 10, 30 nM): 1.05 nM⁻¹
- Fold Change/nM (gene CEP170 // CEP170L, intron expression, 3, 10, 30 nM): 1.05 nM⁻¹
- Fold Change/nM (gene CHST11, intron expression, 3, 10, 30 nM): 1.05 nM⁻¹
- Fold Change/nM (gene DDEF1, intron expression, 3, 10, 30 nM): 1.05 nM⁻¹
- Fold Change/nM (gene DDX3Y introns, regression over control, 3, 10, 30 nM): 1.05 nM⁻¹
- Fold Change/nM (gene DDX18 // WNT8B, intron expression, 3, 10, 30 nM): 1.05 nM⁻¹
- Fold Change/nM (gene DENND4A introns, regression over control, 3, 10, 30 nM): 1.05 nM⁻¹
- Fold Change/nM (gene DPF2, intron expression, 3, 10, 30 nM): 1.05 nM⁻¹
- Fold Change/nM (gene DRAM, intron expression, 3, 10, 30 nM): 1.05 nM⁻¹
- Fold Change/nM (gene DUSP16, intron expression, 3, 10, 30 nM): 1.05 nM⁻¹
- Fold Change/nM (gene EDD1, intron expression, 3, 10, 30 nM): 1.05 nM⁻¹
- Fold Change/nM (gene EIF3S10, intron expression, 3, 10, 30 nM): 1.05 nM⁻¹
- Fold Change/nM (gene EIF4A1 // SENP3, intron expression, 3, 10, 30 nM): 1.05 nM⁻¹
- Fold Change/nM (gene FBXO11, intron expression, 3, 10, 30 nM): 1.05 nM⁻¹
- Fold Change/nM (gene FNTA, intron expression, 3, 10, 30 nM): 1.05 nM⁻¹
- Fold Change/nM (gene FOXK2, intron expression, 3, 10, 30 nM): 1.05 nM⁻¹
- Fold Change/nM (gene FOXO3A, intron expression, 3, 10, 30 nM): 1.05 nM⁻¹
- Fold Change/nM (gene GAK, intron expression, 3, 10, 30 nM): 1.05 nM⁻¹
- Fold Change/nM (gene GDI1 introns, regression over control, 3, 10, 30 nM): 1.05 nM⁻¹
- Fold Change/nM (gene GNA12, intron expression, 3, 10, 30 nM): 1.05 nM⁻¹
- Fold Change/nM (gene GP5 // ZNF394, intron expression, 3, 10, 30 nM): 1.05 nM⁻¹
- Fold Change/nM (gene GTF3C4 introns, regression over control, 3, 10, 30 nM): 1.05 nM⁻¹
- Fold Change/nM (gene GTPBP4, intron expression, 3, 10, 30 nM): 1.05 nM⁻¹
- Fold Change/nM (gene IDI1 introns, regression over control, 3, 10, 30 nM): 1.05 nM⁻¹
- Fold Change/nM (gene IFNGR1 introns, regression over control, 3, 10, 30 nM): 1.05 nM⁻¹
- Fold Change/nM (gene KIAA0226 introns, regression over control, 3, 10, 30 nM): 1.05 nM⁻¹
- Fold Change/nM (gene KLF9 introns, regression over control, 3, 10, 30 nM): 1.05 nM⁻¹
- Fold Change/nM (gene LDLR introns, regression over control, 3, 10, 30 nM): 1.05 nM⁻¹
- Fold Change/nM (gene MAPK6, intron expression, 3, 10, 30 nM): 1.05 nM⁻¹
- Fold Change/nM (gene MKI67IP introns, regression over control, 3, 10, 30 nM): 1.05 nM⁻¹
- Fold Change/nM (gene MLL3 // ADAMTS2 // LRRK1 // BAGE3 introns, regression over control, 3, 10, 30 nM): 1.05 nM⁻¹
- Fold Change/nM (gene MLLT3, intron expression, 3, 10, 30 nM): 1.05 nM⁻¹
- Fold Change/nM (gene MTMR6 introns, regression over control, 3, 10, 30 nM): 1.05 nM⁻¹
- Fold Change/nM (gene MYD88, intron expression, 3, 10, 30 nM): 1.05 nM⁻¹
- Fold Change/nM (gene NFKB2, intron expression, 3, 10, 30 nM): 1.05 nM⁻¹
- Fold Change/nM (gene NIPBL // NRBP1 introns, regression over control, 3, 10, 30 nM): 1.05 nM⁻¹
- Fold Change/nM (gene NPAT, intron expression, 3, 10, 30 nM): 1.05 nM⁻¹
- Fold Change/nM (gene NR3C1, intron expression, 3, 10, 30 nM): 1.05 nM⁻¹
- Fold Change/nM (gene PAK2, intron expression, 3, 10, 30 nM): 1.05 nM⁻¹
- Fold Change/nM (gene PJA2 introns, regression over control, 3, 10, 30 nM): 1.05 nM⁻¹
- Fold Change/nM (gene PLEK, intron expression, 3, 10, 30 nM): 1.05 nM⁻¹
- Fold Change/nM (gene PLEKHM1, intron expression, 3, 10, 30 nM): 1.05 nM⁻¹
- Fold Change/nM (gene POLR3E introns, regression over control, 3, 10, 30 nM): 1.05 nM⁻¹
- Fold Change/nM (gene PPP1CB, intron expression, 3, 10, 30 nM): 1.05 nM⁻¹
- Fold Change/nM (gene PRKAR1A, intron expression, 3, 10, 30 nM): 1.05 nM⁻¹
- Fold Change/nM (gene PRPF4B, intron expression, 3, 10, 30 nM): 1.05 nM⁻¹
- Fold Change/nM (gene PSEN1, intron expression, 3, 10, 30 nM): 1.05 nM⁻¹
- Fold Change/nM (gene PSMD11, intron expression, 3, 10, 30 nM): 1.05 nM⁻¹
- Fold Change/nM (gene RANGAP1, intron expression, 3, 10, 30 nM): 1.05 nM⁻¹
- Fold Change/nM (gene RARA, intron expression, 3, 10, 30 nM): 1.05 nM⁻¹
- Fold Change/nM (gene RBM23 // C9orf102, intron expression, 3, 10, 30 nM): 1.05 nM⁻¹
- Fold Change/nM (gene SETD5, intron expression, 3, 10, 30 nM): 1.05 nM⁻¹
- Fold Change/nM (gene SF3B1, intron expression, 3, 10, 30 nM): 1.05 nM⁻¹
- Fold Change/nM (gene SF3B2, intron expression, 3, 10, 30 nM): 1.05 nM⁻¹
- Fold Change/nM (gene SFPQ, intron expression, 3, 10, 30 nM): 1.05 nM⁻¹
- Fold Change/nM (gene SFRS2IP introns, regression over control, 3, 10, 30 nM): 1.05 nM⁻¹
- Fold Change/nM (gene SFRS3, intron expression, 3, 10, 30 nM): 1.05 nM⁻¹
- Fold Change/nM (gene SLFN11, intron expression, 3, 10, 30 nM): 1.05 nM⁻¹
- Fold Change/nM (gene ST8SIA4 introns, regression over control, 3, 10, 30 nM): 1.05 nM⁻¹
- Fold Change/nM (gene STX6, intron expression, 3, 10, 30 nM): 1.05 nM⁻¹
- Fold Change/nM (gene SUPV3L1 introns, regression over control, 3, 10, 30 nM): 1.05 nM⁻¹
- Fold Change/nM (gene THRAP1 introns, regression over control, 3, 10, 30 nM): 1.05 nM⁻¹
- Fold Change/nM (gene TLR4, intron expression, 3, 10, 30 nM): 1.05 nM⁻¹
- Fold Change/nM (gene TMEM1, intron expression, 3, 10, 30 nM): 1.05 nM⁻¹
- Fold Change/nM (gene TMEM2, intron expression, 3, 10, 30 nM): 1.05 nM⁻¹
- Fold Change/nM (gene TNFSF8, intron expression, 3, 10, 30 nM): 1.05 nM⁻¹
- Fold Change/nM (gene TRAF3 introns, regression over control, 3, 10, 30 nM): 1.05 nM⁻¹
- Fold Change/nM (gene UBXD2 introns, regression over control, 3, 10, 30 nM): 1.05 nM⁻¹
- Fold Change/nM (gene USP4, intron expression, 3, 10, 30 nM): 1.05 nM⁻¹
- Fold Change/nM (gene USP38, intron expression, 3, 10, 30 nM): 1.05 nM⁻¹
- Fold Change/nM (gene USP47 introns, regression over control, 3, 10, 30 nM): 1.05 nM⁻¹
- Fold Change/nM (gene YME1L1, intron expression, 3, 10, 30 nM): 1.05 nM⁻¹
- Fold Change/nM (gene ZNF267, intron expression, 3, 10, 30 nM): 1.05 nM⁻¹
- Fold Change/nM (introns of gene ACSL1, regression over control, 3, 10, 30 nM): 1.07 nM⁻¹
- Fold Change/nM (introns of gene BASP1, regression over control, 3, 10, 30 nM): 1.07 nM⁻¹
- Fold Change/nM (introns of gene CD2, regression over control, 3, 10, 30 nM): 1.07 nM⁻¹
- Fold Change/nM (introns of gene EIF2C2, regression over control, 3, 10, 30 nM): 1.07 nM⁻¹
- Fold Change/nM (introns of gene GCH1, regression over control, 3, 10, 30 nM): 1.07 nM⁻¹
- Fold Change/nM (introns of gene ITGAV, regression over control, 3, 10, 30 nM): 1.08 nM⁻¹
- Fold Change/nM (introns of gene NFKB1, regression over control, 3, 10, 30 nM): 1.07 nM⁻¹
- Fold Change/nM (introns of gene NUMB, regression over control, 3, 10, 30 nM): 1.07 nM⁻¹
- Fold Change/nM (introns of gene PRKCE, regression over control, 3, 10, 30 nM): 1.07 nM⁻¹
- Fold Change/nM (introns of gene PSMD3, regression over control, 3, 10, 30 nM): 1.07 nM⁻¹
- Fold Change/nM (introns of gene QKI, regression over control, 3, 10, 30 nM): 1.07 nM⁻¹
